# Assays:
# [1] = target: GluN2A (Homo sapiens (Human), UniProt Q12879); test: Two electrode voltage-clamp recordings, single concentration, GluN2A; format: cell-based; conditions: pH 6.9
# [2] = Liver microsome stability, mouse; format: in vitro ADME; conditions: 1 μM, with cofactors, one-hour incubation at 37° C.
# Method: Metabolic stability was assessed using human and mouse liver microsomes (Xenotech, USA). The final composition of the assay included 1 μM of the test compound or reference standards (imipramine and diclofenac sodium) prepared from DMSO or acetonitrile stock, so that the final concentration of DMSO and acetonitrile was 0.2% and 0.8%, respectively. The test compound was incubated with 0.5 mg/mL microsomal protein without (100 mM potassium phosphate buffer alone, pH 7.4) or with cofactors (5.0 mM glucose-6-phosphate, 0.06 U glucose-6-phosphate dehydrogenase, 2.0 mM MgCl2, 1.0 mM NADP^+/NADPH). The test compound and standards were incubated at 37° C. with human and mouse liver microsomes; aliquots of the reaction mixture (100 μL) were removed at 0, 5, 15, 30, 60 and 120 min. The reaction in the aliquots was stopped by the addition of 2.5 mL tert-butyl methyl ether and the samples were subjected to shaking for 15 min. […] The percent of the test compound remaining after the specified incubation period was calculated with respect to the peak areas of the test compound at time 0 min.
# The compound and standards were incubated with human and mouse liver microsomes with or without cofactors, and the samples were extracted and analyzed using LC-MS/MS, as described above.
# [3] = target: CYP2D6 (Homo sapiens (Human), UniProt P10635); test: Cytochrome P450 inhibition (Vivid CYP blue screening kit), CYP2D6; format: in vitro ADME; conditions: 1 μM
# Method: Inhibition of CYP2D6 and CYP3A4 was accomplished using recombinant human isoforms and a Vivid CYP blue screening kit (Invitrogen, USA) by incubating 2-fold serial dilutions (9 samples) of the test compound with kit reagents and reaction buffer according to the manufacturer's methods in a 96-well plate. The plate was then incubated at room temperature for 30 min before fluorescence was measured with a plate reader. For these studies, reference standards ketoconazole (CYP3A4) and quinidine (CYP2D6) were used as controls.
# [4] = Plasma protein binding, rapid equilibrium dialysis, human; format: in vitro ADME; conditions: n=2
# Method: Plasma protein binding was performed with a rapid equilibrium dialysis (RED) device containing dialysis membrane with a molecular weight cut-off of 8,000 Daltons according to the manufacturer's instructions (ThermoFisher, USA). The plasma samples (pH 7.4) and the test compound solution (1 or 5 μM) or reference standards (Warfarin and Propranolol, 10 μM) were combined (DMSO final conc 0.1%). 300 μL of this spiked plasma sample was added to the sample chamber, and 500 μL of blank PBS buffer (pH 7.4) was added into the buffer chamber. The RED device was sealed with adhesive film and then incubated at 37° C. with shaking at 300 rpm for 4 h. Following incubation, an aliquot (50 μL) was removed from each well (spiked plasma and buffer side) and diluted with equal volume of the corresponding opposite matrix (blank buffer or blank plasma) to nullify the matrix effect, and then extracted for analysis by LC-MS/MS. The amount of free material was determined by:
# % Free=(LC-MS/MS peak area of test compound in buffer side/LC-MS/MS peak area of test compound in plasma side)×100%
# [5] = test system: motor coordination of mice on rotarod; test: Rotarod performance; format: in vivo, mouse; conditions: for rotarod impairment: all four trials
# Method: The locomotor and rotarod studies were approved by the Georgia State University IACUC, an AAALAC accredited institution under the supervision of licensed veterinarians. Mice were group housed, provided nestlets and shelters with access to food pellets and water ad libitum under a 12-hour light/dark cycle.
# For rotarod experiments, male C57BL/6 mice (>90 days old) were tested using a Rotamax 4/8 rotarod (Columbus Instruments, Columbus, Ohio). Prior to training and testing, the mice were brought to the testing room and allowed to acclimate for two hours prior to any further handling. Mice were placed on a rotating rod (5 rpm), 3.8 cm in diameter and 8 cm wide, elevated 30 cm from the floor of a chamber. After 10 sec of rotation at a fixed velocity, the rotation was slowly accelerated from 5 to 35 rpm over a 5 min period. The duration of time that the mouse could stay on the rotarod, without hanging on for a full rotation or without falling, was recorded. Mice were trained 4 times at 25 min inter-trial intervals on each day for two days. On day three, mice were randomly assigned to treatment groups and administered test drug or vehicle (via IP administration) 25 min prior to testing (4 trials with inter-trial interval of 25 min). Individuals performing the experiment were blinded to the identity of each treatment group. Results were analyzed by ANOVA and Dunnett's post hoc test to compare duration of time on the rotating rod of drug-treated groups to the vehicle controls.
# [6] = in vivo; conditions: BALB/c, mouse, plasma
# Method: Formulation for pharmacokinetic studies used 2% or 10% N′,N′-dimethylacetamide, 10% propylene glycol, and 30% 2-hydroxypropyl-beta-cyclodextrin in water and a dose volume of 10 mL/kg (all routes of administration).
# Briefly, mice were administered a 2 mg/kg or a 5 mg/kg dose (n=3 each) by IP injection (10 mL/kg dose volume) and blood samples collected at 0.08, 0.25, 0.5, 1, 2, 4, 8 and 24 hours post dose in tubes containing sodium heparin on ice. 100 μL of plasma was combined with 50 μL of internal standard (haloperidol, 10 μg/mL) and tubes were then spun at 4000 g for 10 min (4° C.) and plasma transferred to clean tubes and stored at −80° C. until analysis.
# Blood samples were collected on ice in sodium heparin tubes at 0.08, 0.25, 0.5, 1, 2, 4, 8, and 24 hours post dose. Samples were prepared and analyzed as described above except here the internal standard was fluconazole (10 μg/mL).
# [7] = clinical; conditions: human, plasma, intravenous
# Method: Subjects checked into the clinic on Day 1 and remained in the clinic through the 48 h post-dose blood draw on Day 7, after which time they were discharged. Subjects returned to the clinic for a follow-up visit at Day 9. […] Dose levels included 25, 50 and 100 mg.
# Collection tubes containing K2EDTA were be used to collect 5 mL of whole blood sample at each time point. Immediately after collection, tubes were inverted to mix the anticoagulant with the blood sample. Tubes were then centrifuged at a speed of approximately 3000 g force for 10 minutes at 4° C. Within 5 minutes of centrifugation the plasma fraction was transferred into two equal aliquots (1.25 mL each) into 2 mL cryovials and then frozen and stored at −70° C.
# The method was adapted and used to measure plasma samples by TMD Pharmaceutical Research (Newark, DE). […] Analytes were detected by multiple reaction monitoring using an MDS Sciex API 4000 mass spectrometer (AB Sciex, Framingham, MA) in positive mode.
# The pharmacokinetic analysis was performed based on the non-compartmental analysis approach (M. Garibaldi and D Perrier, Pharmacokinetics 2nd Edition, Chapter 11, Marcel Dekker Inc., New York, 1982) using MS Excel®.
# Sequence of GluN2A (Q12879 23-1464, other chains not shown): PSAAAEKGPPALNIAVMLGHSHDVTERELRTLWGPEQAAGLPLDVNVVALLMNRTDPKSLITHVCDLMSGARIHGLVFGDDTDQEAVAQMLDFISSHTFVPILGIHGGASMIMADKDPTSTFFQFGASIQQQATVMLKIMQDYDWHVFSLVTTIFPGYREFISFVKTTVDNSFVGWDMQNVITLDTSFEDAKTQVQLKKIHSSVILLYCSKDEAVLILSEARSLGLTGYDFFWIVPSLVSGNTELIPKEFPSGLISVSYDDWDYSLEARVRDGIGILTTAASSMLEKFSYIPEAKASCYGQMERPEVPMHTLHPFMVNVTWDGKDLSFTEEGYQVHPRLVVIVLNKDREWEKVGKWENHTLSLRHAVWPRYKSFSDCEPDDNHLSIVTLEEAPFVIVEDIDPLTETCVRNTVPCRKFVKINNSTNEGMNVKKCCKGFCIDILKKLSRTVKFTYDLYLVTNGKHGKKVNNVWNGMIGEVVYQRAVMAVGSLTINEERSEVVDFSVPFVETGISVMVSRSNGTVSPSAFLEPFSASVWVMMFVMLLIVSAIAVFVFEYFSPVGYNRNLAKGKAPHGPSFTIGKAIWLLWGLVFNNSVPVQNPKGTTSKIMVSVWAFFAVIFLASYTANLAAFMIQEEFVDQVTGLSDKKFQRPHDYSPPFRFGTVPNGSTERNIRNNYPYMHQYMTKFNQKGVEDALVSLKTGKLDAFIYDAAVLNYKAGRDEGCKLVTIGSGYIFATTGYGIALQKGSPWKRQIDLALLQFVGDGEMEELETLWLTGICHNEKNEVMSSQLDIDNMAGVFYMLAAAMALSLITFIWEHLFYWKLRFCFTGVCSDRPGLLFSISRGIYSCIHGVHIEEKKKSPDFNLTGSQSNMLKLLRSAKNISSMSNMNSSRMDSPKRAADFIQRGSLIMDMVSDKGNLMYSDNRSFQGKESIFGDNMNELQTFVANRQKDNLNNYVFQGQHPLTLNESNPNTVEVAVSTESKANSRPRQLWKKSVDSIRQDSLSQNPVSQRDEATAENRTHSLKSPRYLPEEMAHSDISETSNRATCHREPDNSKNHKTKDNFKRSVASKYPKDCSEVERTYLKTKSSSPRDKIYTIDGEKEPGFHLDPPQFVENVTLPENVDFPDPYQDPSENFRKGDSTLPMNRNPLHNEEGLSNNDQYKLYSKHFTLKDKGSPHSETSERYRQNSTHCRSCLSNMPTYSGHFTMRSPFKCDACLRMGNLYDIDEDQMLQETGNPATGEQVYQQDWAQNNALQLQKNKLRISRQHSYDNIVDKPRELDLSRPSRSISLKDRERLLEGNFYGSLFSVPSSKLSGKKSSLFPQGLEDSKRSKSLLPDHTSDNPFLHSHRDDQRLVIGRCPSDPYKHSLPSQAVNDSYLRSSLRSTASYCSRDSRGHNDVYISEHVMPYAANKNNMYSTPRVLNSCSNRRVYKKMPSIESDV
# Sequence of CYP2D6 (P10635 whole entry, canonical isoform): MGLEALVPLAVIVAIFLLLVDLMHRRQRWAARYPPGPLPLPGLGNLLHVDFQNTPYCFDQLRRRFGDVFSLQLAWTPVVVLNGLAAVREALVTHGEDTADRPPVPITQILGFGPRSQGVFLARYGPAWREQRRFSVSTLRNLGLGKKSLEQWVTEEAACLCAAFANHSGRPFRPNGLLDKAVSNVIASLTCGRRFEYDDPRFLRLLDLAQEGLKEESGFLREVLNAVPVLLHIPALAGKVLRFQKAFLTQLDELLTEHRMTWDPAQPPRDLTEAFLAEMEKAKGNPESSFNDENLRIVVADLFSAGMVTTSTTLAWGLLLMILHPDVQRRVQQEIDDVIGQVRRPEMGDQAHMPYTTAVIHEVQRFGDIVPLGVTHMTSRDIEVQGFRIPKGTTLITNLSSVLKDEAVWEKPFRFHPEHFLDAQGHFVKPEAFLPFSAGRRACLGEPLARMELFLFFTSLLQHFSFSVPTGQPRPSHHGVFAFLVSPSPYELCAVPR
smiles,measurement,setting,value
O=C1CCc2cc(OC[C@H](O)CN3CCN(c4ccc(C(F)(F)F)cc4)CC3)ccc2N1 [NP10679],off-target inhibition against GluN2A,[1]; 3 μM,no noticeable off-target inhibition
same,GluN2A % residual,[1]; % current remaining after 3 μM compound,99.0 (pH 6.9) %
same,percent remaining in mouse liver microsomes,[2],54%
same,inhibition of CYP2D6,[3],did not inhibit
same,bound to human plasma proteins,[4],97.7%
same,rotarod impairment,[5]; 2 mg/kg IP,no significant impairment
same,rotarod impairment,[5]; 5 mg/kg IP,no significant impairment
same,latency to fall,"[5]; 10 mg/kg IP, fourth trial",87 ± 13 s
same,"latency to fall, change from the vehicle control","[5]; 10 mg/kg IP, trials 1, 2, or 3",no statistically significant change
same,AUC(0-t),"[6]; iv, 3 mg/kg",17800 ng·h/mL
same,Cmax,"[6]; iv, 3 mg/kg",2350 ng/mL
same,Tmax,"[6]; iv, 3 mg/kg",0.08 h
same,Vd,"[6]; iv, 3 mg/kg",1.59 L/kg
same,clearance,"[6]; iv, 3 mg/kg",2.44 mL/min/kg
same,half-life,"[6]; iv, 3 mg/kg",8.56 h
same,bioavailability,"[6]; oral, 10 mg/kg",75.7%
same,AUC(0-inf),"[6]; po, 10 mg/kg",49500 ng·h/mL
same,AUC(0-t),"[6]; po, 10 mg/kg",45000 ng·h/mL
same,Cmax,"[6]; po, 10 mg/kg",3600 ng/mL
same,Tmax,"[6]; po, 10 mg/kg",1 h
same,half-life,"[6]; po, 10 mg/kg",7.06 h
same,AUC(0-inf),"[6]; male, ip, 2 mg/kg",5690 ng·h/mL
same,AUC(0-t),"[6]; male, ip, 2 mg/kg",4750 ng·h/mL
same,Cmax,"[6]; male, ip, 2 mg/kg",581 ng/mL
same,Tmax,"[6]; male, ip, 2 mg/kg",0.5 h
same,half-life,"[6]; male, ip, 2 mg/kg",9.9 h
same,AUC(0-inf),"[6]; male, ip, 5 mg/kg",13100 ng·h/mL
same,AUC(0-t),"[6]; male, ip, 5 mg/kg",11800 ng·h/mL
same,Cmax,"[6]; male, ip, 5 mg/kg",1430 ng/mL
same,Tmax,"[6]; male, ip, 5 mg/kg",0.5 h
same,half-life,"[6]; male, ip, 5 mg/kg",7.5 to 9.9 h
same,Cmax,[7]; 25 mg,213 ± 26 ng/mL
same,Tmax,[7]; 25 mg,0.5 h
same,half-life,[7]; 25 mg,15.4 to 36.2 h
same,Cmax,[7]; 50 mg,394 ± 72 ng/mL
same,Tmax,[7]; 50 mg,1 ± 0.4 h
same,half-life,[7]; 50 mg,15.5 to 25.6 h
same,half-life,[7]; 100 mg,12.5 to 34 h
